Source: PMC4996523, “Biophysical and Pharmacological Characterization of Nav1.9 Voltage Dependent Sodium Channels Stably Expressed in HEK-293 Cells” (PLoS ONE, 2016)
Several values for one entry are separate records, joined by “and”; a condition that tells them apart may be missing. Equal entries are not always repeated. Entries after “also recorded” stand apart in the source; their conditions may differ. Where two headings read alike, the source gives them in different places.

Assays:
Assay type in all cases: cell-based
Human Nav1.9 = target: T1, Human Nav1.9 (Homo sapiens, UniProt Q9UI33); assay: PatchXpress whole-cell voltage clamp, inhibition of human Nav1.9 (+β1/β2) currents in HEK-293 cells; parameters: key to Activity on human Nav1.9 at single concentration: NA = not active; settings: for Increase in potency at the most depolarized membrane potential: -90 mV vs -140 mV (resting to half-inactivated channels)
T1 construct: expressed in transfected cells; host or cells: HEK-293 stably expressing human β1/β2

[1] = target: T2, Human Nav1.9 F1592A/Y1599A (Homo sapiens, UniProt Q9UI33, F1592A/Y1599A); assay: PatchXpress whole-cell voltage clamp, inhibition of the human Nav1.9 F1592A/Y1599A local anesthetic site mutant in HEK-293 cells; settings: for IC50: read-out: IC50 for inhibition of human Nav1.9 F1592A/Y1599A (LAM)
T2 construct: expressed in transfected cells; host or cells: HEK-293-β1/β2

Human Nav1.7 = target: T3, Human Nav1.7 (Homo sapiens, UniProt Q15858); assay: PatchXpress whole-cell voltage clamp, inhibition of human Nav1.7 in HEK-293 cells
T3 construct: expressed in transfected cells; host or cells: HEK-293-β1/β2

Nav1.9 K799N = target: T4, Nav1.9 K799N (Homo sapiens, UniProt Q9UI33, K799N); assay: PatchXpress whole-cell voltage clamp, inhibition of the human Nav1.9 K799N mutant in HEK-293 cells; settings: for IC50: protocol of Fig 2
T4 construct: expressed in transfected cells; host or cells: HEK-293-β1/β2

Nav1.7 N945K = target: T5, Nav1.7 N945K (Homo sapiens, UniProt Q15858, N956K); assay: PatchXpress whole-cell voltage clamp, inhibition of the human Nav1.7 N945K mutant in HEK-293 cells
T5 construct: expressed in transfected cells; host or cells: HEK-293-β1/β2

Human Nav1.8 = Human Nav1.8 (Homo sapiens, UniProt Q9Y5Y9); assay: Whole-cell voltage clamp, inhibition of human Nav1.8; settings: ~50% inactivated
Rat Nav1.9 = target: T6, Rat Nav1.9 (Rattus norvegicus, UniProt O88457); assay: PatchXpress whole-cell voltage clamp, inhibition of rat Nav1.9 (+rat β1/β2) in HEK-293 cells
T6 construct: expressed in transfected cells; host or cells: HEK-293-rat β1/β2

Mouse Nav1.9 = target: T7, Mouse Nav1.9 (Mus musculus, UniProt Q9R053); assay: PatchXpress whole-cell voltage clamp, inhibition of mouse Nav1.9 (+mouse β1/β2) in HEK-293 cells
T7 construct: expressed in transfected cells; host or cells: HEK-293-mouse β1/β2

[2] = holding potential -120 mV (~25% inactivation), 40 ms step to -40 mV every 20 s, HEK-293 + β1/β2, 500 μM GTP-γ-S in pipette, read-out: IC50 for inhibition of human Nav1.9
[3] = Nav1.9 F1592A/Y1599A vs Nav1.9 WT

T2 sequence (Q9UI33 whole entry F1592A/Y1599A): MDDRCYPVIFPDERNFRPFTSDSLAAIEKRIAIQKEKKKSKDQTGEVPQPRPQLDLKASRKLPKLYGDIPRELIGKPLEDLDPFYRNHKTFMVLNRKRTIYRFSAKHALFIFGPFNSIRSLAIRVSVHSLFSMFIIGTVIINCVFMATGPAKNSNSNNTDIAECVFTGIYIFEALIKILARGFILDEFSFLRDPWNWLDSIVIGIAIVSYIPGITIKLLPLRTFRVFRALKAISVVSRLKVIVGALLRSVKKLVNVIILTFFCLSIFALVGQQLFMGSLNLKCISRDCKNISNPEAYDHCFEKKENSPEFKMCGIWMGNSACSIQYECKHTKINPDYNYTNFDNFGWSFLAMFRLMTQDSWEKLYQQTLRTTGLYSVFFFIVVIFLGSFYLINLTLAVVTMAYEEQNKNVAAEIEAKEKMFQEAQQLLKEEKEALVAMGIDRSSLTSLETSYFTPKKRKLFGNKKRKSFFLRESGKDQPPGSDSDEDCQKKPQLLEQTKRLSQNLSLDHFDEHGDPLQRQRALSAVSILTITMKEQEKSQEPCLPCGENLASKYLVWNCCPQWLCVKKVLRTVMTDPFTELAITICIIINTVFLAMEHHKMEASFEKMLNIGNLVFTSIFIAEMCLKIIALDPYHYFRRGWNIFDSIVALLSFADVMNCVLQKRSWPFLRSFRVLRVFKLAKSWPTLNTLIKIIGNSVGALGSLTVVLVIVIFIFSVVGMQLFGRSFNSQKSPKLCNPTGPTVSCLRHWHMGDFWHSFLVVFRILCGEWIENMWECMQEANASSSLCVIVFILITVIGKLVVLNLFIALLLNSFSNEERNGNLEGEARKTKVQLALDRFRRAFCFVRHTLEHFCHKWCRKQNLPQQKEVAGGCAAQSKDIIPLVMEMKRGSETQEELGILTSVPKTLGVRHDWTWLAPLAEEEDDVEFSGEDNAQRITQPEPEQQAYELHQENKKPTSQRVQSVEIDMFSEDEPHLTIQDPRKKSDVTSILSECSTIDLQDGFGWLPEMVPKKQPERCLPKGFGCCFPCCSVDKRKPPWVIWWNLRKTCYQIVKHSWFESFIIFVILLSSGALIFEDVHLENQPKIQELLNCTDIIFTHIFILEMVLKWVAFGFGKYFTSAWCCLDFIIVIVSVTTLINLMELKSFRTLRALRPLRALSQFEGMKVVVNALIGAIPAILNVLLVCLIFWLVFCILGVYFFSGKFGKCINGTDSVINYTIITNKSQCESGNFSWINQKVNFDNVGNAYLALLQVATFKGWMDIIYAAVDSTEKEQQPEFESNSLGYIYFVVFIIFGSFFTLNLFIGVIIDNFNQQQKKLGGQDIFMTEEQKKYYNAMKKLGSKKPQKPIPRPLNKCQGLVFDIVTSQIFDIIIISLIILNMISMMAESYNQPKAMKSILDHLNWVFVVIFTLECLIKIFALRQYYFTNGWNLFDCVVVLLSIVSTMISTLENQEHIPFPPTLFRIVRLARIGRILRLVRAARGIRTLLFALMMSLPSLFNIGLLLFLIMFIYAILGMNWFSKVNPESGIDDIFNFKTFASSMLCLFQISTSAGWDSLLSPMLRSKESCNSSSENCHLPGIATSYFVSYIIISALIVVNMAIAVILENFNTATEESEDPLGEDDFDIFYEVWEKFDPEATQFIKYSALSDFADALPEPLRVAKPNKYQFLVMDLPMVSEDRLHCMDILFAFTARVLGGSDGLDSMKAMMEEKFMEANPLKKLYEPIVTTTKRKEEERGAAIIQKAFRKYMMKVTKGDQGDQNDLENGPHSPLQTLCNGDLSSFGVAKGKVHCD
T2 sequence (Q07699 19-218 partner): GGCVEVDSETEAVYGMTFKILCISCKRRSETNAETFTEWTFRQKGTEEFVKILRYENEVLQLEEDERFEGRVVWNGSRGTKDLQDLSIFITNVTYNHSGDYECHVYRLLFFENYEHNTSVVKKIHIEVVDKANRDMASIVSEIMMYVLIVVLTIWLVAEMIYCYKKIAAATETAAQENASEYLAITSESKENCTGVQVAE
T5 sequence (Q15858 1-1977 isoform Q15858-3 N945K): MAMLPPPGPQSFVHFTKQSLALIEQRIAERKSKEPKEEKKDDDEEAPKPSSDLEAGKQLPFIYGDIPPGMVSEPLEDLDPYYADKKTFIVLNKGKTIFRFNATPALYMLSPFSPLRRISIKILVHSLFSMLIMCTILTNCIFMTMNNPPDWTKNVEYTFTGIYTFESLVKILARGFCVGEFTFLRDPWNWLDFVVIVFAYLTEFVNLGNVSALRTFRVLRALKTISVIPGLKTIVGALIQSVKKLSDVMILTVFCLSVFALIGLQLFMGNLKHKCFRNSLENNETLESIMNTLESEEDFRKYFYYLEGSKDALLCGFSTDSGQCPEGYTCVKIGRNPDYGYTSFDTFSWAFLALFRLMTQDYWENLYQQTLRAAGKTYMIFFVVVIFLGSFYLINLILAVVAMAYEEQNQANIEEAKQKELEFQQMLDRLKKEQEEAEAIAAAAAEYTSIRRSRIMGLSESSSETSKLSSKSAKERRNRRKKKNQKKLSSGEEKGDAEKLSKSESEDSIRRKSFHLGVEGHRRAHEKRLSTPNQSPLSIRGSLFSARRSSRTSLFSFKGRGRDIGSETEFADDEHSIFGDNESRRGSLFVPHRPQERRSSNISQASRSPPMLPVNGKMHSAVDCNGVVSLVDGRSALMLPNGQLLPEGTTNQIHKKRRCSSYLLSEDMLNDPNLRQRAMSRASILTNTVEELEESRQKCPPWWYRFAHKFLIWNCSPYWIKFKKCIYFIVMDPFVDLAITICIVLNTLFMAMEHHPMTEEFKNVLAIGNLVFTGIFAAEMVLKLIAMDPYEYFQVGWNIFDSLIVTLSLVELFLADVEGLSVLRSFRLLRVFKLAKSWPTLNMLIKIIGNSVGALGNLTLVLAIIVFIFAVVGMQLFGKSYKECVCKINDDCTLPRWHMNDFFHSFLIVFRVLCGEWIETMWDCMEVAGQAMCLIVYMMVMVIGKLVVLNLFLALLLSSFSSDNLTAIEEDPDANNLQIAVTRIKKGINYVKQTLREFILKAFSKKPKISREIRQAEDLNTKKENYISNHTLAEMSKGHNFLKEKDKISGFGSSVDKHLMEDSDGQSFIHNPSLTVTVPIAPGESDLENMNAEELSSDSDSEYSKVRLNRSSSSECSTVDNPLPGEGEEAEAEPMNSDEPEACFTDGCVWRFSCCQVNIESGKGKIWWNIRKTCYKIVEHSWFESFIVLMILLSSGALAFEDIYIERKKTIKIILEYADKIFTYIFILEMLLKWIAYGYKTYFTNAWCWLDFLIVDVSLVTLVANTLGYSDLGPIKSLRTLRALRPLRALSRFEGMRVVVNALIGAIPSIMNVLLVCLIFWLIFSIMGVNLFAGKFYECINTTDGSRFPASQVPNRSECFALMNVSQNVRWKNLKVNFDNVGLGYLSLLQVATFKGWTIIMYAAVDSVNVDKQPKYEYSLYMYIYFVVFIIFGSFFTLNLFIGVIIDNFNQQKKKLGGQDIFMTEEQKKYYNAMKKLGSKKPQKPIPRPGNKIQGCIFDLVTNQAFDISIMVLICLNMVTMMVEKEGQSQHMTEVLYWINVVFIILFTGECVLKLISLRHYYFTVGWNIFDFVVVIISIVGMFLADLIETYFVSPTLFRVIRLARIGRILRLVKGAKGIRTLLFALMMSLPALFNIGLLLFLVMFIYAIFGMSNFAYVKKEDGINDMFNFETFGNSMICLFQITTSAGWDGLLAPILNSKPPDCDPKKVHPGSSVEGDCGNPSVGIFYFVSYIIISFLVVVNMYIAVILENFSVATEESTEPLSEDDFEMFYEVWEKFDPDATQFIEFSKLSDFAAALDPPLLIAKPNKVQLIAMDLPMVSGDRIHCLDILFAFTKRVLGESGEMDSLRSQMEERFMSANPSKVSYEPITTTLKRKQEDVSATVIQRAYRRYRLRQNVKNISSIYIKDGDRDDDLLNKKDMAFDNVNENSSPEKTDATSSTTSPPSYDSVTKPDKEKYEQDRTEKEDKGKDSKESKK
T5 sequence (Q07699 19-218 partner): as the sequence (Q07699 19-218 partner) above
T5 sequence (O60939 30-215 partner): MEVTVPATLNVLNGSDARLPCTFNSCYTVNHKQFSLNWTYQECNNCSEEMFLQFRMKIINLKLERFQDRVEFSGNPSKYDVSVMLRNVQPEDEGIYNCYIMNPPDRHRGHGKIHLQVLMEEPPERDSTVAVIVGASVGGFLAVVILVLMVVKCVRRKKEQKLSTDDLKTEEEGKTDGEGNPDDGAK
T4 sequence (Q9UI33 whole entry K799N): as the sequence (Q9UI33 whole entry F1592A/Y1599A) above, with K799N, A1592F, A1599Y counted along it
T4 sequence (Q07699 19-218 partner): as the sequence (Q07699 19-218 partner) above
T1 sequence (Q9UI33 whole entry): as the sequence (Q9UI33 whole entry F1592A/Y1599A) above, with A1592F, A1599Y counted along it
T1 sequence (Q07699 19-218 partner): as the sequence (Q07699 19-218 partner) above
T3 sequence (Q15858 1-1977 isoform Q15858-3): as the sequence (Q15858 1-1977 isoform Q15858-3 N945K) above, with K945N counted along it
T3 sequence (Q07699 19-218 partner): as the sequence (Q07699 19-218 partner) above
T3 sequence (O60939 30-215 partner): as the sequence (O60939 30-215 partner) above

For `COc1cc(NC(=O)c2ccc(-c3ccc(Cl)cc3)o2)cc(OC)c1` [A-803467], the “Inhibition of human Nav1.9 at single concentration” value (Human Nav1.9; 10 μM) was 30% @ 10 μM.
In the case of `CN(C)CCC=C1c2ccccc2CCc2ccccc21` [Amitriptyline], the IC50 (Human Nav1.9; [2]) is reported as 29 µM and the IC50 ([1]; same protocol as Nav1.9 WT) is reported as 0.105 mM.
In the case of `CCOC(=O)c1ccc(N)cc1` [Benzocaine], the IC50 (Human Nav1.9; [2]) is reported as 351 µM, the IC50 (Human Nav1.9; in figure, holding potential -120 mV, read-out: IC50 for inhibition of human Nav1.9 WT) is reported as 400 µM and the “Effect of the F1592A/Y1599A mutation on Nav1.9 inhibition” value (shortened to “Effect … on Nav1.9 inhibition”) [1, 3] is reported as “reduced”. The “Reduction in potency by the F1592A/Y1599A mutation” value [1, 3] was 5 fold, the IC50 ([1]; in figure) was 1.8 mM and the IC50 ([1]; same protocol as Nav1.9 WT) was 1.76 mM. The IC50 (Human Nav1.7; in figure, read-out: IC50 for inhibition of Nav1.7 WT) was 130 µM, the IC50 (Human Nav1.7; wild type, ~50% inactivated, read-out: IC50 for inhibition of human Nav1.7) was 133 µM and the “Effect of the K799N mutation on potency” value (Nav1.9 K799N; Nav1.9 K799N vs Nav1.9 WT) was “unaffected”. For the same compound, the IC50 (Nav1.9 K799N; in figure) was 300 µM, the “Effect of the N945K mutation on sensitivity” value (Nav1.7 N945K; Nav1.7 N945K vs Nav1.7 WT) was “no shift; also recorded: unchanged” and the IC50 (Nav1.7 N945K; in figure) was 180 µM.
In the case of `CCCCN1CCCCC1C(=O)Nc1c(C)cccc1C` (centres unmarked) [Bupivacaine], the IC50 (Human Nav1.9; [2]) is reported as 186 µM.
`[Cl][Cd][Cl]` [CdCl2] was tested, and the “Activity on human Nav1.9 at single concentration” value (from here on “Activity”) (Human Nav1.9; 100 μM) was “NA @ 100 μM”.
In the case of `O=C(NCC1CCCCN1)c1cc(OCC(F)(F)F)ccc1OCC(F)(F)F` (centres unmarked) [Flecainide], the IC50 (Human Nav1.9; [2]) is reported as 244 µM.
In the case of `O=C(Nc1ccc(S(=O)(=O)Nc2nccs2)cc1)C(c1ccccc1)c1ccccc1` [ICA-121431], the “Activity” value (Human Nav1.9; 10 μM) is reported as “NA @ 10 μM”.
`Nc1nnc(-c2cccc(Cl)c2Cl)c(N)n1` [Lamotrigine] showed an IC50 (Human Nav1.9; [2]) of 199 µM.
`CCN(CC)CC(=O)Nc1c(C)cccc1C` [Lidocaine] was tested, and the IC50 (Human Nav1.9; [2]) was 356 µM, the “Effect … on Nav1.9 inhibition” value [1] was “reduced” and the IC50 ([1]; same protocol as Nav1.9 WT) was 5.55 mM.
For `Cc1cccc(C)c1OCC(C)N` (centres unmarked) [Mexiletine], the IC50 (Human Nav1.9; [2]) was 270 µM, the “Effect … on Nav1.9 inhibition” value [1, 3] was “reduced” and the IC50 ([1]; same protocol as Nav1.9 WT) was 0.837 mM. The IC50 (Human Nav1.8) was 18 µM.
For `COCC(=O)O[C@]1(CCN(C)CCCc2nc3ccccc3[nH]2)CCc2cc(F)ccc2[C@@H]1C(C)C` [Mibefradil], the “Activity” value (Human Nav1.9; 10 μM) was “NA @ 10 μM”.
`COCCOC(=O)C1=C(C)NC(C)=C(C(=O)OC(C)C)C1c1cccc([N+](=O)[O-])c1` (centres unmarked) [Nimodipine] was tested, and the IC50 (Human Nav1.9; [2]) was 33 µM.
For `CC(=O)Nc1cccc(Nc2ncnc(N3CCC(OCc4ccc(OC(F)(F)F)cc4)CC3)n2)c1C` [TC-N 1752], the “Effect … on Nav1.9 inhibition” value [1, 3] was “essentially abolished” and the “Decrease in potency by the K799N mutation” value (Nav1.9 K799N; Nav1.9 K799N vs Nav1.9 WT) was 5.6 fold and ~ 6 fold.
`NC1=N[C@H](O)[C@H]2[C@H]3O[C@]4(O)O[C@@H]([C@@H](O)[C@@]2(N1)[C@@H]4O)[C@]3(O)CO` [TTX, tetrodotoxin] was tested, and the “Activity” value (Human Nav1.9) was “NA @ 10 μM” and the “Sensitivity of peak inward Nav1.9 current to inhibition” value (Human Nav1.9) was “insensitive”.
In the case of `CCCCNc1ccc(C(=O)OCCN(C)C)cc1` [Tetracaine], the “Increase in potency at the most depolarized membrane potential” value (Human Nav1.9) is reported as about 3 fold, the “Increase in potency at the most depolarized membrane potential” value (Human Nav1.9; listed as tetracaine) is reported as “no more than 3 fold” and the IC50 (Human Nav1.9; holding potential -90 mV, read-out: IC50 for inhibition of Nav1.9 at holding potential -90 mV) is reported as 17 µM. The IC50 (Human Nav1.9; holding potential -100 mV, read-out: IC50 for inhibition of Nav1.9 at holding potential -100 mV) was 22 µM, the IC50 (Human Nav1.9; [2]) was 31.7 µM and 32 µM and the IC50 (Human Nav1.9; holding potential -120 mV, Fig 2B holding potential series, read-out: IC50 for inhibition of Nav1.9 at holding potential -120 mV) was 31 µM. The IC50 (Human Nav1.9; holding potential -140 mV, read-out: IC50 for inhibition of Nav1.9 at holding potential -140 mV) was 54 µM, the IC50 ([1]; same protocol as Nav1.9 WT) was 0.177 mM and the IC50 (Human Nav1.8) was 0.3 µM. For the same compound, the IC50 (Rat Nav1.9) was 7.6 µM, the IC50 (Mouse Nav1.9) was 12 µM and the “Increase in potency by the K799N mutation” value (Nav1.9 K799N; Nav1.9 K799N vs Nav1.9 WT) was 3 fold. The IC50 (Nav1.9 K799N) was 10.3 µM and 10 µM and the “Decrease in sensitivity by the N945K mutation” value (Nav1.7 N945K; Nav1.7 N945K vs Nav1.7 WT) was 3 fold.
